Ten molecules from ChEMBL document CHEMBL1137322, “Arylmethyloxyphenyl derivatives: small molecules displaying P-glycoprotein inhibition” (J Med Chem, 2006) can be followed below.

Calls of active or inactive are those of the source. The calls are words filed in the database; no cut-off is given here.

In one data set the target is D(2) dopamine receptor (Homo sapiens, UniProt P14416). The data set is described as follows: Binding affinity to D2 receptor.
In a further data set the test system is NCI/ADR-RES. Kind of data set: Cytotoxicity against MCF7/Adr cells at 100 uM after 48 hrs. It is filed as functional, Homo sapiens.
In data set [1] the test system is Caco-2. The data set is described as follows: Inhibition of vinblastine-induced ATPase activation in Caco-2 cells. It is filed as functional, Homo sapiens.
The target of data set [2] is T1, 5-hydroxytryptamine receptor 1A (Homo sapiens, UniProt P08908).
T1 sequence (P08908 whole entry): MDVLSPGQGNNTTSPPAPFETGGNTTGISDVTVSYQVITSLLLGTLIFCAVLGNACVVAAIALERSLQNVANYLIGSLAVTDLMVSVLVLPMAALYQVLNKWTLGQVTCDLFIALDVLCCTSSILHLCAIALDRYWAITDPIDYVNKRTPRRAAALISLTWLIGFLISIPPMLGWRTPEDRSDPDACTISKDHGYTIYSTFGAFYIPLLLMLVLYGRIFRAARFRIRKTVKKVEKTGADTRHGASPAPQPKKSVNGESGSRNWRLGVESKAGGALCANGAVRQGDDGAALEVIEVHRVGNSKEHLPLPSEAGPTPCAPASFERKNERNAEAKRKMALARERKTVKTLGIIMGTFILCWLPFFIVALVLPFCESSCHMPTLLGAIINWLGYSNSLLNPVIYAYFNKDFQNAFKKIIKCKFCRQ
Kind of data set: Binding affinity to 5HT1A receptor.

Data set [3] concerns Caco-2. Kind of data set: Inhibition of ATPase measured as increase in ATP level in Caco-2 cells at 20 uM relative to vinblastine after 120 mins. It is filed as functional, Homo sapiens. Details: scale not given: the % may be the effect or the level left.
In data set [4] the target is T2, ATP-dependent translocase ABCB1 (Homo sapiens, UniProt P08183). The data set is described as follows: Inhibition of Pgp measured as doxorubicin accumulation in MCF7/Adr cells at 20 nM by flow cytometry. In kind it is functional, cell-based. As to conditions: nci/adr-res, 0.02 µM.
Data set [5] deals with T2, ATP-dependent translocase ABCB1. The data set is described as follows: Inhibition of Pgp measured as inhibition of [3H]vinblastine basolateral to apical transport in Caco-2 cells. In kind it is functional, cell-based.
Data set [6] has as its system Caco-2. The data set is described as follows: Inhibition of ATPase measured as ATP availability in Caco-2 cells at 20 nM after 90 mins relative to control. It is filed as functional, Homo sapiens. Further details: scale not given: the % may be the effect or the level left.
In data set [7] the test system is Caco-2. The data set is described as follows: Inhibition of ATPase measured as ATP availability in Caco-2 cells at 20 nM after 60 mins relative to control. In kind it is functional, Homo sapiens. Details: scale not given: the % may be the effect or the level left.
The test system of data set [8] is Caco-2. The data set is described as follows: Inhibition of ATPase measured as ATP availability in Caco-2 cells at 20 nM after 120 mins relative to control. It is filed as functional, Homo sapiens. Details: scale not given: the % may be the effect or the level left.

By Ki is commonly meant the equilibrium dissociation constant of an inhibitor or competing ligand from its target. Broadly, the EC50 is the concentration at which the effect is half-maximal.

Chain of D(2) dopamine receptor (P14416 whole entry): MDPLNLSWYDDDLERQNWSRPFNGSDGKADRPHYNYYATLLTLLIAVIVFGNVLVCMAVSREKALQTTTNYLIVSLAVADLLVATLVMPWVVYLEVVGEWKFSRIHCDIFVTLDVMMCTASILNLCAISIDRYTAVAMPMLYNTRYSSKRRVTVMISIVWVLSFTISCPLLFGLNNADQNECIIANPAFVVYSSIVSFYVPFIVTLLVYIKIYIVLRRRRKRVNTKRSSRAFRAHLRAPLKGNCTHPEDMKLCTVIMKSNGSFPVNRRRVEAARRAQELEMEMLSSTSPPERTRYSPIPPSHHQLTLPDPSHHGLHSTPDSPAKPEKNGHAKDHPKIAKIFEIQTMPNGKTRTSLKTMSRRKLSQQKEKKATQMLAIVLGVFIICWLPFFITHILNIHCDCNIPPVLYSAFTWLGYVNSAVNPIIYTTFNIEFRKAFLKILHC
T2 sequence (P08183 whole entry): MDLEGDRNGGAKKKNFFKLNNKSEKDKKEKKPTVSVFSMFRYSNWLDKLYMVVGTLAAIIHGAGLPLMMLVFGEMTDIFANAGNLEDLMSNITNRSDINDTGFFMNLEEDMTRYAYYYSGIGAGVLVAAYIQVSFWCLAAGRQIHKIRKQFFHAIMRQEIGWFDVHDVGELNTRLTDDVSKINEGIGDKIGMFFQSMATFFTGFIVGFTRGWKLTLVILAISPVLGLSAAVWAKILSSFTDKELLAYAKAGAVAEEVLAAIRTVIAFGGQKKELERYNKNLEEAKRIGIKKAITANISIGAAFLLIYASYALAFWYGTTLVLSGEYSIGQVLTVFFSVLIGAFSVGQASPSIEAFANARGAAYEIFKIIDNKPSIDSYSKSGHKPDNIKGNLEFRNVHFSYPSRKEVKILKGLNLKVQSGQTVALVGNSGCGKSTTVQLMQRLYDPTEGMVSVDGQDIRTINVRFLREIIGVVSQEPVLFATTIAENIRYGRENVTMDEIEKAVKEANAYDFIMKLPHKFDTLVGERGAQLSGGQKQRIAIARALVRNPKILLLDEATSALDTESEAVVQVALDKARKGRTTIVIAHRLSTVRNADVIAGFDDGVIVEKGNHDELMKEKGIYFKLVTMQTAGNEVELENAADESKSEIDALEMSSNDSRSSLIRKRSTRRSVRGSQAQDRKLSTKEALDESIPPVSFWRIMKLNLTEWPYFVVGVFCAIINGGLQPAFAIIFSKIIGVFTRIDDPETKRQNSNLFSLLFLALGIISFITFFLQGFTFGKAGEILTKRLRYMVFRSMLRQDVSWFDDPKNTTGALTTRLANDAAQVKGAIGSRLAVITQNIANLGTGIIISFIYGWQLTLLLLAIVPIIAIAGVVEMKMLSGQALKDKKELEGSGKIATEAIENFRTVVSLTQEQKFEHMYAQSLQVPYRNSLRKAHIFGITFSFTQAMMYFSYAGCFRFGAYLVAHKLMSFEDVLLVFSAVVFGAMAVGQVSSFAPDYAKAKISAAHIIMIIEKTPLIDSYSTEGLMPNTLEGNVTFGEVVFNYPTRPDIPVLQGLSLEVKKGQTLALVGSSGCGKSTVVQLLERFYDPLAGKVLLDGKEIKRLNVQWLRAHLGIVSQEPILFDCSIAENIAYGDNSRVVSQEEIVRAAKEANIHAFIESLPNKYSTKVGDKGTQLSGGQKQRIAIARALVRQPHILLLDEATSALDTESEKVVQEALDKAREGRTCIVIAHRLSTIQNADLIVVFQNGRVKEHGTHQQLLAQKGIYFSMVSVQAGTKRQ

With `COc1cccc(CCc2ccccc2OCc2cccnc2)c1`, the Ki (at D(2) dopamine receptor; in data set [2]) was 5 µM throughout. Further, the values for the Activity in the data set on NCI/ADR-RES and with Caco-2 [1] were 8% and 400 µM, respectively.
With `COc1cc2c(cc1OC)CN(CCc1ccc(NC(=O)c3cccc4c(=O)c5cccc(OC)c5[nH]c34)cc1)CC2`, the outcome in the data set with Caco-2 [1] (Homo sapiens) was inactive.
For the molecule `COc1cccc(CCc2ccccc2OCc2cccc(OC)c2)c1`, the values for the Activity (in the data set with Caco-2 [3]; in data set [4]; with NCI/ADR-RES) were 41%, “Active” and 8%, respectively. In addition, the Ki (on D(2) dopamine receptor; in data set [2]) was 5 µM in each case. The outcome in the data set on Caco-2 [1] (Homo sapiens) was inactive. This molecule also had an EC50 in [5] of 17.2 µM.
Consider `c1ccc(CCc2ccccc2OCc2ccccn2)cc1`, for which the values for the Activity in the data set with Caco-2 [3] and in the data set with NCI/ADR-RES were 15% and 8%, respectively. For the same molecule, the Ki (on D(2) dopamine receptor; in data set [2]) was 5 µM each time. The result with Caco-2 [1] (Homo sapiens) was inactive. Further, the EC50 in data set [5] stood at 100 µM.
For `CC[C@]1(O)C[C@@H]2CN(CCc3c([nH]c4ccccc34)[C@@](C(=O)OC)(c3cc4c(cc3OC)N(C)[C@H]3[C@@](O)(C(=O)OC)[C@H](OC(C)=O)[C@]5(CC)C=CCN6CC[C@]43[C@@H]65)C2)C1` [VINBLASTINE], the Activity turned out to be 72% in the data set with Caco-2 [6], 81% in the data set on Caco-2 [7] and 42% in the data set on Caco-2 [8].
With `COc1cccc(CCc2ccccc2OCc2ccccn2)c1`, the values for the Activity (with Caco-2 [3]; in [4]; with NCI/ADR-RES) were 41%, “Active” and 8%, respectively. The Ki (on D(2) dopamine receptor; in data set [2]) was 5 µM in each case. Further, the result with Caco-2 [1] (Homo sapiens) was inactive. This molecule also gave an EC50 in [5] of 27.6 µM.
`c1ccc(CCc2ccccc2OCc2cccnc2)cc1`: the Ki (on D(2) dopamine receptor; in data set [2]) was 5 µM in each case. Besides, the Activity with NCI/ADR-RES worked out at 8%; in the data set with Caco-2 [1], 100 µM. The same molecule showed an EC50 in data set [5] of 125 µM.
In the case of `COc1cccc(CCc2ccccc2OCc2ccccc2)c1`, the values for the Activity with Caco-2 [3] and in the data set on NCI/ADR-RES were 19% and 8%, respectively. Besides, the Ki (at D(2) dopamine receptor; in data set [2]) was 5 µM in each case. For the same molecule, in the data set on Caco-2 [1] (Homo sapiens), the result was inactive. The midpoint of the response in data set [5], the EC50, lay at 92.8 µM.
In the data set with NCI/ADR-RES, `COc1ccc(CCN(C)CCCC(C#N)(c2ccc(OC)c(OC)c2)C(C)C)cc1OC` (centres undefined) yielded an Activity of 95%.
Take `c1ccc(CCc2ccccc2OCc2ccccc2)cc1`: the Ki (at D(2) dopamine receptor; in data set [2]) was 5 µM each time. Further, the Activity in the data set with NCI/ADR-RES is 8%; with Caco-2 [1], 50 µM.
